Source: doi:10.1101/2024.08.25.609621 (bioRxiv, 2024)
Where “and” joins values, the source holds several entries; their conditions need not be identical. Equal entries are not always repeated. Where two headings read alike, the source gives them in different places.

Assays:
[1] = molecular target: SARS-CoV-2 NSP3 macrodomain (Mac1) (Severe acute respiratory syndrome coronavirus 2, UniProt P0DTD1); assay: biochemical; type: binding
[2] = molecular target: SARS-CoV-2 NSP3 macrodomain (Mac1), P43 crystal form (Severe acute respiratory syndrome coronavirus 2, UniProt P0DTD1); type: binding; conditions: for Isomers modeled: stereoisomer(s) of ligand modeled in Mac1 crystal structure; for 1-BDC: PanDDA background density correction; for Pandda run, overall: Modeled / Pandda run, overall: Hit: crystal soak; for Pandda run, overall: Hit: TRUE = ligand hit; for Total number of conformations: ligand conformations modeled in Mac1 crystal structure; for 2*(1-BDC) (%): occupancy estimate from PanDDA 1-BDC
[3] = Single dose, concentration 200 μM, read-out: Average % competition
[4] = preliminary screen, compound at 200 μM, mean of 3-4 technical replicates, read-out: % competition in HTRF assay
[5] = ligand modeling in Mac1 crystal soak
[6] = Single dose, concentration 200 μM, read-out: SARS CoV-2 macrodomain HTRF assay: Average % competition
[7] = dose-response, read-out: SARS CoV-2 macrodomain HTRF assay: Ki
[8] = from SARS CoV-2 macrodomain HTRF assay
[9] = SARS CoV-2 macrodomain HTRF assay
[10] = SARS CoV-2 macrodomain HTRF assay, dose-response, read-out: IC50
[11] = SARS CoV-2 macrodomain HTRF assay, dose-response, read-out: Ki

| SMILES | inhibition at 200 µM [1, 3] [%] | inhibition at 200 µM [1, 4] [%] | Number of isomers bound [2, 5] | PanDDA run, TFA/DMSO background map: 1-BDC ([2]; crystal soak 10 mM) | PanDDA run, TFA/DMSO background map: Hit ([2]; crystal soak 10 mM) | also measured |
| --- | --- | --- | --- | --- | --- | --- |
| NC(=O)C1(O)CCN(c2ncnc3[nH]ccc23)C1 (stereo not drawn) [AVI-611] | 30 | 30 | 1 |  |  | Isomers modeled [2]: S,S |
| CCC1(O)CCN(c2ncnc3[nH]ccc23)C1 (stereo not drawn) [AVI-612] | 22 | 22 | 1 |  |  |  |
| O[C@@H]1CN(c2ncnc3[nH]ccc23)C[C@H]1F [AVI-616] | 15 | 15 | 1 |  |  |  |
| CC(C)(O)[C@@H]1CCCN1c1ncnc2[nH]ccc12 [AVI-1445, (S)-2-(1-(7H-pyrrolo[2,3-d]pyrimidin-4-yl)pyrrolidin-2-yl)propan-2-ol] |  | 75 | 1 |  |  | fold decrease in affinity compared to AVI-607 ([1]; HTRF): ~ 5 fold; Hill slope ([1]; HTRF dose-response fit, Mac1): 1.1; inhibition at 200 µM [1, 6]: 75%; SARS CoV-2 macrodomain HTRF assay: Hillslope ([1]; dose-response fit): 1.6; Ki [1, 7]: 100 µM; Ligand efficiency (binding enery per heavy atom) [1, 8]: 0.31; IC50 ([1]; read-out: HTRF IC50): 110 µM; 1-BDC [2]: 0.12; Pandda run, overall: Modeled ([2]; soak concentration 10 mM): TRUE; Pandda run, overall: Hit ([2]; soak concentration 10 mM): TRUE; Total number of conformations [2]: 1; 2*(1-BDC) (%) [2]: 24%; X-ray crystallography: Binding site ([2]; site where the ligand is bound in the X-ray crystal structure): Adenosine; PanDDA run, DMSO background map: 1-BDC ([2]; soak concentration 10 mM): 0.12; PanDDA run, DMSO background map: Hit ([2]; soak concentration 10 mM): TRUE; PanDDA run, TFA/DMSO background map: 1-BDC ([2]; soak concentration 10 mM): 0.12; PanDDA run, TFA/DMSO background map: Hit ([2]; soak concentration 10 mM): TRUE |
| Cc1c[nH]c2ncnc(NCC3(O)CCC3)c12 [AVI-3571, 1-(((5-methyl-7H-pyrrolo[2,3-d]pyrimidin-4-yl)amino)methyl)cyclobutan-1-ol] |  |  | 1 |  |  | Hill slope ([1]; HTRF dose-response fit, Mac1): 1.0; Ligand efficiency (binding enery per heavy atom) [1, 9]: 0.39; Hill slope ([1]; SARS CoV-2 macrodomain HTRF assay, dose-response): 1.0; IC50 [1, 10]: 15 µM; Ki [1, 11]: 14 µM; 1-BDC [2]: 0.15; X-ray crystal structure ([2]; X-ray crystal structure determined (TRUE)): TRUE; Pandda run, overall: Modeled ([2]; soak concentration 10 mM): TRUE; Pandda run, overall: Hit ([2]; soak concentration 10 mM): TRUE; Total number of conformations [2]: 2; 2*(1-BDC) (%) [2]: 30%; Binding site ([2]; site of ligand in X-ray crystal structure): Adenosine; PanDDA run, DMSO background map: 1-BDC ([2]; soak concentration 10 mM): 0.15 and 0.2; PanDDA run, DMSO background map: Hit ([2]; soak concentration 10 mM): TRUE; Isomers modeled [2]: achiral,achiral |
| CCC(Nc1ncnc2[nH]ccc12)C(C)O (stereo not drawn) [AVI-3635] | 54 | 54 | 1 | 0.08 | TRUE | PanDDA run, TFA/DMSO background map: 1-BDC ([2]; soak concentration 10 mM): 0.11; PanDDA run, TFA/DMSO background map: Hit ([2]; soak concentration 10 mM): TRUE |
| OCC(CC(F)(F)F)Nc1ncnc2[nH]ccc12 (stereo not drawn) [AVI-3637] | 50 | 50 | 1 |  |  | PanDDA run, TFA/DMSO background map: 1-BDC ([2]; soak concentration 10 mM): 0.21; PanDDA run, TFA/DMSO background map: Hit ([2]; soak concentration 10 mM): TRUE |
| OCC(Nc1ncnc2[nH]ccc12)C1CCC1 (stereo not drawn) [AVI-3638] | 77 | 77 | 1 | 0.1 | TRUE |  |
| O=C(O)C(F)(F)F.O[C@H]1CCC[C@@H]1Nc1ncnc2[nH]ccc12 [AVI-3639] | 74 | 74 | 1 | 0.09 | TRUE |  |
| OCC(CC1CCC1)Nc1ncnc2[nH]ccc12 (stereo not drawn) [AVI-3641] | 32 | 32 | 1 | 0.11 | TRUE |  |
| OCC(CC(O)c1ccccc1)Nc1ncnc2[nH]ccc12 (stereo not drawn) [AVI-3642] | < 10 | < 10 | 1 | 0.17 | TRUE |  |
| CCC(CO)Nc1ncnc2[nH]ccc12 (stereo not drawn) [AVI-3643] | 63 | 63 | 1 | 0.14 | TRUE |  |
| C#CCC(CO)Nc1ncnc2[nH]ccc12 (stereo not drawn) [AVI-3644] | 43 | 43 | 1 | 0.11 | TRUE |  |
| OC1CCCN(c2ncnc3[nH]ccc23)C1 (stereo not drawn) [AVI-3646] | 20 | 20 | 1 | 0.13 | TRUE |  |
| CC(C)(C)CC(CO)Nc1ncnc2[nH]ccc12 (stereo not drawn) [AVI-3648] | 27 | 27 | 1 | 0.16 | TRUE |  |
| OCC(Nc1ncnc2[nH]ccc12)C1CCCC1 (stereo not drawn) [AVI-3649] | 68 | 68 | 1 | 0.11 | TRUE |  |

| SMILES | inhibition at 200 µM [1, 3] [%] | inhibition at 200 µM [1, 4] [%] | Number of isomers bound [2, 5] | PanDDA run, TFA/DMSO background map: 1-BDC ([2]; crystal soak 10 mM) | PanDDA run, TFA/DMSO background map: Hit ([2]; crystal soak 10 mM) | also measured |
| --- | --- | --- | --- | --- | --- | --- |
| OCC(Cc1c[nH]c2ccccc12)Nc1ncnc2[nH]ccc12 (stereo not drawn) [AVI-3650] | 71 | 71 | 2 | 0.11 | TRUE | Isomers modeled [2]: R,S |
| OCC(Nc1ncnc2[nH]ccc12)C1CC1 (stereo not drawn) [AVI-3651] |  |  | 1 | 0.16 | TRUE | Ligand efficiency (binding enery per heavy atom) [1, 9]: 0.38; IC50 [1, 10]: 48 µM; Ki [1, 11]: 45 µM |
| OC(c1ccccc1)C1CCCN1c1ncnc2[nH]ccc12 (stereo not drawn) [AVI-3652] |  | 35 | 1 | 0.16 | TRUE | inhibition at 200 µM [1, 6]: 35% |
| CC1CCN(c2ncnc3[nH]ccc23)C1CO (stereo not drawn) [AVI-3655] |  | 75 | 1 | 0.18 | TRUE | inhibition at 200 µM [1, 6]: 75% |
| CO[C@@H]1C[C@H](CO)N(c2ncnc3[nH]ccc23)C1 [AVI-3656] |  | 41 | 1 |  |  | inhibition at 200 µM [1, 6]: 41% |
| Cn1cc(CC(CO)Nc2ncnc3[nH]ccc23)cn1 (stereo not drawn) [AVI-3657] | 24 | 24 | 1 | 0.09 | TRUE |  |
| OCC(CC1OCCO1)Nc1ncnc2[nH]ccc12 (stereo not drawn) [AVI-3658] | 11 | 11 | 1 |  |  |  |
| OCC(Nc1ncnc2[nH]ccc12)c1ccco1 (stereo not drawn) [AVI-3659] | 55 | 55 | 1 | 0.08 | TRUE |  |
| OCC(CC1CCCO1)Nc1ncnc2[nH]ccc12 (stereo not drawn) [AVI-3660] | 18 | 18 | 1 | 0.17 | TRUE |  |
| OC1CCN(c2ncnc3[nH]ccc23)C1 (stereo not drawn) [AVI-3661] |  | 11 |  | 0.12 | TRUE | inhibition at 200 µM [1, 6]: 11%; Number of isomers bound ([2]; ligand modeling in Mac1 crystal structure): 1 |
| OCC(CC1CC1)Nc1ncnc2[nH]ccc12 (stereo not drawn) [AVI-3662] | 44 | 44 | 1 | 0.09 | TRUE |  |
| O[C@H]1CC[C@@H]2CCN(c3ncnc4[nH]ccc34)[C@@H]21 [AVI-3664] |  |  | 1 | 0.15 | TRUE | IC50 ([1]; dose-response, read-out: SARS CoV-2 macrodomain HTRF assay: IC50): 28 µM; Ki [1, 7]: 26 µM; Ligand efficiency (binding enery per heavy atom) [1, 8]: 0.35; Isomers modeled [2]: SRS |
| OCC(CC1CCOC1)Nc1ncnc2[nH]ccc12 (stereo not drawn) [AVI-3665] | 11 | 11 | 1 | 0.15 | TRUE |  |
| CCC(O)[C@H]1CCCN1c1ncnc2[nH]ccc12 (stereo partly drawn) [AVI-3666] |  |  | 1 |  |  | fold decrease in binding affinity compared to AVI-4062 [1]: ~ 4 fold; Ligand efficiency (binding enery per heavy atom) [1, 8]: 0.34 |
| CCC(Nc1ncnc2[nH]ccc12)C(C)(C)O (stereo not drawn) [AVI-3667] | 51 | 51 | 1 | 0.07 | TRUE |  |
| CC(c1ccccc1)C(CO)Nc1ncnc2[nH]ccc12 (stereo not drawn) [AVI-3669] |  |  | 1 | 0.09 | TRUE | fold more potent / increased binding affinity than AVI-313 parent ([1]; HTRF IC50 compared with AVI-313): > 10 fold; Ligand efficiency (binding enery per heavy atom) [1, 9]: 0.33; Ki [1, 11]: 8.1 µM; Ligand efficiency ([1]; binding energy per heavy atom): 0.33; IC50 ([1]; read-out: HTRF IC50): 8.7 µM |
